Measurements reported in US20240067655A1 (NEURON23, INC., priority 2020, published 2024).

Tests used:
[1] = molecular target: T1, wt human LRRK2, catalytic site (Homo sapiens, UniProt Q5S007); assay: TR-FRET LanthaScreen Eu Kinase Binding Assay, LRRK2 wt (Example 72); settings: Example 72 text; one statement for LRRK2 (Wt) and LRRK2 (G2019); read-out: IC50, Inhibitory Activity Toward LRRK2 (Wt)
T1 construct: wt human LRRK2, catalytic site; purchased ThermoFisher/USA
Method: (§1) The compounds in Tables 5-6 were tested for their inhibitory effect on a set of kinases according to the following procedures.
(§2) The basic protocol for TR-FRET LanthaScreen Eu Kinase Binding Assay inhibitor studies were performed as follows. LanthaScreen Kinase Binding Assays (ThermoFisher/USA) to evaluate inhibitors were performed by addition of 5 μl of test compound in corresponding DMSO dilutions/5 μl of kinase/antibody mixture, 5 μl of tracer into 384 well small volume plates. After incubation for 1 hour at room temperature, plates were read. Data analysis of emission ratios was according to LanthaScreen Eu Kinase Binding Assay protocol.
(§3) Kinase and assay components were adjusted to final concentrations according to the kit protocol. For LRRK2: 5 nM wt human LRRK2, catalytic site, or G2019S human LRRK2, catalytic site (ThermoFisher/USA), 2 nM Eu-Anti-GST Antibody, 10 nM Kinase Tracer 236 in 1× Kinase Buffer A. For NUAK1: 8 nM wt human NUAK1, full length (ThermoFisher/USA), 2 nM Eu-Anti-His Antibody, 5 nM Kinase Tracer 236 in 1× Kinase Buffer A.

[2] = molecular target: T2, G2019S human LRRK2, catalytic site (Homo sapiens, UniProt Q5S007, G2019S); assay: TR-FRET LanthaScreen Eu Kinase Binding Assay, LRRK2 G2019S (Example 72); settings: Example 72 text; one statement for LRRK2 (Wt) and LRRK2 (G2019); read-out: IC50, Inhibitory Activity Toward LRRK2 (G2019)
T2 construct: G2019S human LRRK2, catalytic site; purchased ThermoFisher/USA
Method: as §1, §2, §3

[3] = molecular target: T3, wt human NUAK1, full length (Homo sapiens, UniProt O60285); assay: TR-FRET LanthaScreen Eu Kinase Binding Assay, NUAK1 (Example 72); settings: Example 72 text; read-out: IC50, Inhibitory Activity Toward NUAK1
T3 construct: 8 nM wt human NUAK1, full length (ThermoFisher/USA); purchased ThermoFisher/USA
T3 sequence (O60285 1-661): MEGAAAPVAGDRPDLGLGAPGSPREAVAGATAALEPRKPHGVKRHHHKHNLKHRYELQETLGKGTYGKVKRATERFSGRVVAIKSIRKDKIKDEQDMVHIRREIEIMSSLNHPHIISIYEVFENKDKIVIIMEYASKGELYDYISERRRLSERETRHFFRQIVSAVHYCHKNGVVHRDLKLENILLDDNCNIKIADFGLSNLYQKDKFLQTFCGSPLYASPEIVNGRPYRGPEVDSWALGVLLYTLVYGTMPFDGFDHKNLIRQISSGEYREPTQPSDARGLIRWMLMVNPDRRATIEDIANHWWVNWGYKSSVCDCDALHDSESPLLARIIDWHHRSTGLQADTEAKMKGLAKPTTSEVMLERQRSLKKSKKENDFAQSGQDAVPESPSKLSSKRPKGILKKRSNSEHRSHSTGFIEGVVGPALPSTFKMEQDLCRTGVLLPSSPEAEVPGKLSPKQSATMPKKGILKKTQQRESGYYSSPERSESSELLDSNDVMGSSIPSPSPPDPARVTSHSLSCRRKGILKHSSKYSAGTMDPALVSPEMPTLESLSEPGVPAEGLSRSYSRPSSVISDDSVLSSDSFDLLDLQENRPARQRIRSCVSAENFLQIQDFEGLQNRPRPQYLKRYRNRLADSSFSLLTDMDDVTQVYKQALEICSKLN
Method: as §1, §2, §3

[4] = molecular target: T4, wt human TYK2, catalytic site (Homo sapiens, UniProt P29597); assay: HTRF KinEASE assay, TYK2 (Example 72); assay type: biochemical; settings: Example 72 text; read-out: IC50, Inhibitory Activity Toward TYK2
T4 construct: wt human TYK2, catalytic site; purchased SignalChem/CAN
T4 sequence (P29597 897-1176 limits assumed): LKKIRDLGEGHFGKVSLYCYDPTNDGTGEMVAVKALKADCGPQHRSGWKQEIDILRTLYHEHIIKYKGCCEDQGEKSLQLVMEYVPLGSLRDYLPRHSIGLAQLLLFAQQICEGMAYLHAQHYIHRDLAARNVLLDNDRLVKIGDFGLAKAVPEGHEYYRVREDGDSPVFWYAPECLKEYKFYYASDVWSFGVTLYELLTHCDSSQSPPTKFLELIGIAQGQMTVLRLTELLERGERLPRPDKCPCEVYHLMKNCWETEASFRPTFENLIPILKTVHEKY
Method: as §1
Basic protocol for HTRF KinEASE assay (Cisbio/FRA) inhibitor studies involved two steps:
Enzymatic step: Addition of 4 μl of test compound in corresponding DMSO dilutions, 4 μl of kinase/substrate mixture, 2 μl of ATP into 384 well small volume plates. Incubation for at least 30 minutes at room temperature.
Detection step: Addition of 5 μl antibody and 5 μl streptavidin-XL665, read plate after 60 minutes. Data analysis of emission ratios according to KinEASE assay protocol.
Kinase and assay components were adjusted to final concentrations according to the kit protocol. For TYK2: 2 nM wt human TYK2, catalytic site (SignalChem/CAN), 1 μM HTRF KinEASE-TK Substrate-biotin, 1 μM ATP in 1× Kinase Buffer

[5] = molecular target: T1, wt human LRRK2, catalytic site; assay: TR-FRET LanthaScreen Tb Kinase Activity Assay (Example 71); assay type: biochemical; settings: compounds of Table 4, 38 uM ATP, method names only wt human LRRK2, read-out: IC50, Inhibitory Activity Toward LRRK2 (Wt) and LRRK2 (G2019)
Method: The compounds in Table 4 were tested for their inhibitory effect on LRRK2 kinases according to the following procedures.
The basic protocol for TR-FRET LanthaScreen Tb Kinase Activity Assay inhibitor studies were performed as follows. LanthaScreen Kinase Activity Assays (ThermoFisher/USA) to evaluate inhibitors were performed by addition of 100 nl of test compound in corresponding DMSO dilutions/5 μl of kinase/fluorescein-ERM(LRRKtide) peptide mixture, 5 μl of ATP into 384 well small volume plates. After incubation for 120 minutes at room temperature, the detection reagents containing Tb-anti-pLRRKtide antibody were added to monitor phosphrylation level of peptide. Then, after 60 min minutes incubation at room temperature plates were read in Envision. Data analysis of emission ratios was according to LanthaScreen Tb Kinase Activity Assay protocol.
Kinase and assay components were adjusted to final concentrations according to the kit protocol. For LRRK2: 2 nM wt human LRRK2, catalytic site, catalytic site (ThermoFisher/USA), 400 nM peptide, 38 uM ATP in 1× Kinase Buffer A.
Basic protocol for TR-FRET LanthaScreen Tb Kinase Activity Assay inhibitor studies involved two steps:
Enzymatic step: Addition of 100 nl of test compound in corresponding DMSO dilutions, 5 μl of kinase/substrate mixture, 5 μl of ATP into 384 well small volume plates. Incubation for 120 minutes at room temperature.
Detection step: Addition of 10 μl EDTA & antibody, read plate after 60 minutes. Data analysis of emission ratios according to KinEASE assay protocol.

T1 sequence (Q5S007 1879-2138 limits assumed): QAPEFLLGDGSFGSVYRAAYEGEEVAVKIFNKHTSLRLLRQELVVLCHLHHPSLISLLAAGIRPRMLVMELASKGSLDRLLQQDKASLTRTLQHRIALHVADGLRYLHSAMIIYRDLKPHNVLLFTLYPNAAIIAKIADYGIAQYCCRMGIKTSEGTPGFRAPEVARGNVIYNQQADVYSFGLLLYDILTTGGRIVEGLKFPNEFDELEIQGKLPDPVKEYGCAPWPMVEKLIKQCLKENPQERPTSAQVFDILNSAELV
T2 sequence (Q5S007 1879-2138 G2019S limits assumed): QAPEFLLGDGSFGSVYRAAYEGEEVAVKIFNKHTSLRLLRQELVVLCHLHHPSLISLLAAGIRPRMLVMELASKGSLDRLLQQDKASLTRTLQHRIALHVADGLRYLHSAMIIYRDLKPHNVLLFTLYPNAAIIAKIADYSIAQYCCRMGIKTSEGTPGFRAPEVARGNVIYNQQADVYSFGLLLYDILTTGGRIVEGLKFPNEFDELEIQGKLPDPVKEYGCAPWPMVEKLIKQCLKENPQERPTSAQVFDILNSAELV

| Compound | IC50 [1] [nM] | IC50 [2] [nM] | IC50 [3] [nM] | IC50 [4] [nM] | IC50 [5] [nM] |
| --- | --- | --- | --- | --- | --- |
| Fc1ccccc1C1=Nc2c[nH]nc2-c2cccc3cnn1c23 [Compound 316, 4-(2-fluorophenyl)-8H-pyrazolo[4′,3′:4,5][1,3]diazepino[6,7,1-hi]indazole] | 10 to 100 | 10 to 100 |  |  |  |
| Fc1cccc(F)c1C1=Nc2cn[nH]c2-c2cnn3c2N1CCC3 [Compound 308, 9-(2,6-difluorophenyl)-3,6,7,8-tetrahydro-2,3,5,5a,8a,10-hexaazabenzo[cd]cyclopenta[h]azulene] | < 10 | < 10 | 10 to 100 |  |  |
| Fc1cccc(F)c1C1=Nc2cn[nH]c2-c2nnc3cccn1c2-3 [Compound 307, 9-(2,6-difluorophenyl)-3H-2,3,4,5,8a,10-hexaazabenzo[cd]cyclopenta[h]azulene] | 10 to 100 | 10 to 100 | 10 to 100 |  |  |
| CC(=O)n1cc2c3c(cccc31)-c1n[nH]cc1N=C2c1c(F)cccc1F [Compound 311, 1-(3-(2,6-difluorophenyl)pyrazolo[3′,4′:6,7]azepino[3,4,5-cd]indol-1(7H)-yl)ethan-1-one] | 10 to 100 | 10 to 100 |  |  |  |
| Fc1ccc(F)c(C2=Nc3c[nH]nc3-c3cccc4cnn2c34)c1 [Compound 315, 4-(2,5-difluorophenyl)-8H-pyrazolo[4′,3′:4,5][1,3]diazepino[6,7,1-hi]indazole] | < 10 | < 10 | 10 to 100 |  |  |
| Fc1cccc(F)c1C1=Nc2cn[nH]c2-c2ccc(F)c3cnn1c23 [Compound 317, 4-(2,6-difluorophenyl)-11-fluoro-8H-pyrazolo[4′,3′:4,5][1,3]diazepino[6,7,1-hi]indazole] | < 10 | < 10 | 10 to 100 |  |  |
| Fc1cccc(F)c1C1=Nc2cn[nH]c2-c2cccc3nnn1c23 [Compound 304, 3-(2,6-difluorophenyl)-7H-1,2,2a,4,6,7-hexaazabenzo[cd]cyclopenta[f]azulene] | 10 to 100 | 10 to 100 | 10 to 100 |  |  |
| Fc1cccc(F)c1C1=Nc2c[nH]nc2-c2cccc3cnn1c23 [Compound 302, 4-(2,6-difluorophenyl)-8H-pyrazolo[4′,3′:4,5][1,3]diazepino[6,7,1-hi]indazole] | < 10 | < 10 |  |  |  |
| Clc1cccc(Cl)c1C1=Nc2c[nH]nc2-c2cccc3cnn1c23 [Compound 309, 4-(2,6-dichlorophenyl)-8H-pyrazolo[4′,3′:4,5][1,3]diazepino[6,7,1-hi]indazole] | < 10 | < 10 |  |  |  |
| Fc1cc2c3c(cnn3C(c3c(F)cccc3F)=Nc3c[nH]nc3-2)c1 [Compound 314, 4-(2,6-difluorophenyl)-10-fluoro-7H-pyrazolo[4′,3′:4,5][1,3]diazepino[6,7,1-hi]indazole] | 100 to 1000 | 100 to 1000 |  | 100 to 1000 |  |
| Cc1cn2c3c(cccc13)-c1n[nH]cc1N=C2c1c(F)cccc1F [Compound 313, 10-(2,6-difluorophenyl)-7-methyl-3H-pyrazolo[4′,3′:4,5][1,3]diazepino[6,7,1-hi]indole] | < 10 | < 10 | 10 to 100 |  |  |
| Fc1cccc(Cl)c1C1=Nc2cn[nH]c2-c2cccc3cnn1c23 [Compound 306, 4-(2-chloro-6-fluorophenyl)-8H-pyrazolo[4′,3′:4,5][1,3]diazepino[6,7,1-hi]indazole] | 10 to 100 | 10 to 100 | 10 to 100 |  |  |
| Fc1cccc(F)c1C1=Nc2c[nH]nc2-c2cccc3ncn1c23 [Compound 301, 3-(2,6-difluorophenyl)-7H-1,2a,4,6,7-pentaazabenzo[cd]cyclopenta[f]azulene] | < 10 | < 10 | 10 to 100 |  |  |
| Fc1cccc(F)c1C1=Nc2cn[nH]c2-c2cncc3ncn1c23 [Compound 303, 3-(2,6-difluorophenyl)-7H-1,2a,4,6,7,9-hexaazabenzo[cd]cyclopenta[f]azulene] | 100 to 1000 | 100 to 1000 | 10 to 100 | 100 to 1000 |  |
| Cc1n[nH]c2c1N=C(c1c(F)cccc1Cl)N1CCn3ncc-2c31 [Compound 395, 3-(2-chloro-6-fluorophenyl)-5-methyl-2,7-dihydro-1H-2a,4,6,7,9,9a-hexaazadicyclopenta[cd,f]azulene] |  |  |  |  | < 10 |
| Cc1n[nH]c2c1N=C(c1c(F)ccc(Br)c1F)N1CCn3ncc-2c31 [Compound 391, 3-(3-bromo-2,6-difluorophenyl)-5-methyl-2,7-dihydro-1H-2a,4,6,7,9,9a-hexaazadicyclopenta[cd,f]azulene] |  |  |  |  | < 10 |
| Fc1cccc(Cl)c1C1=Nc2cn[nH]c2-c2cnn3c2N1CCC3 [Compound 341, 9-(2-chloro-6-fluorophenyl)-3,6,7,8-tetrahydro-2,3,5,5a,8a,10-hexaazabenzo[cd]cyclopenta[h]azulene] |  |  |  |  | < 10 |
